{"source": "patent US11759448B2", "about": "“Methods for the treatment of inflammation” (University of South Florida, priority 2020, dated 2023)", "key": {"COX-2": {"target": "T1, COX-2 (Homo sapiens, UniProt P35354)", "T1 sequence (P35354 18-604)": "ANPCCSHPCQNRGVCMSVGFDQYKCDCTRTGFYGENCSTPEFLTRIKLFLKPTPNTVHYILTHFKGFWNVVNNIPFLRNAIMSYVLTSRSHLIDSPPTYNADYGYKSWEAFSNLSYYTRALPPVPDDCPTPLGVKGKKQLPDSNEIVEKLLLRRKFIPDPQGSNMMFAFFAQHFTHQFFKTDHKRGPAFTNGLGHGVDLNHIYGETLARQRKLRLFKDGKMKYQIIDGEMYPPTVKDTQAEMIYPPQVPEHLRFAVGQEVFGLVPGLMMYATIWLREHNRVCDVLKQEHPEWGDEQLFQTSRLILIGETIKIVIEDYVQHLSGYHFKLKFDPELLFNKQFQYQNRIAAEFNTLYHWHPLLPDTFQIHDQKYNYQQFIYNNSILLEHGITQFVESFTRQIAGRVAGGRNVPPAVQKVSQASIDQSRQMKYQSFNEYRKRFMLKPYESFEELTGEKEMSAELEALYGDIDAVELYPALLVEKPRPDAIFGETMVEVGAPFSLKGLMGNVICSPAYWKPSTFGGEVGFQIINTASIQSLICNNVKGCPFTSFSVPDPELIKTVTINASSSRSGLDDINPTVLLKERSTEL", "test": "COX-2 assay", "assay_type": "biochemical", "details": "FIG. 2; compared to control diclofenac and dimethyl sulfoxide blank", "description": "(§1) The fractions isolated may be tested for activity against COX-2 or TNF-α using assays as would be known to those having skill in the art. Representative examples of such assays that could be used include a COX-2 inhibitory fluorometric assay or a TNF-α inhibitory fluorometric assay, each of which are commercially available from numerous suppliers.\n(§2) The crude sample provided was dissolved in Ethyl acetate and dried down on Silica gel in a 1:3 ratio. Medium pressure chromatography was performed using a Teledyne-Isco combi-flash Torrent system. A 750 gram silica column was used with a Hexanes to Ethyl acetate gradient, which gave 11 fractions. Fraction A was then subjected to high pressure liquid chromatography on a preparative Silica NP column (250×20 mm), with a gradient between Hexanes to 20% ethyl acetate, which gave 4 fractions. The active fraction was further purified, with a gradient of Hexanes to 100% ethyl acetate on a preparative Silica NP column (250×20 mm), which gave 23 fractions. Fraction 17 was subjected to two rounds of NP hplc using an analytical Silica column (250×10 mm), which gave the final pure compound. An LC-20AD Shimadzu system and an SPD-20A UV detector was used for the hplc separations. All steps were guided using bioassay data from the COX-2 and TNF-α assays. […]"}, "TNF-α": {"tested_on": "TNF-α", "test": "tumor necrosis factor alpha (TNF-α) assay", "assay_type": "cell-based", "details": "FIG. 1; y-axis TNF-α in picograms per milliliter, lower values mean lower inflammation in the cell", "description": "as §1, §2"}}}
{"smiles": "C[C@@]12CCC[C@@H]3c4ccccc4[C@@H](C[C@@H]31)OC2=O", "note": "[compound of formula (I)]", "values": [{"measurement": "inhibitory activity on COX-2 (level of prostaglandins in the sample)", "setting": "COX-2", "value": "limited to no inhibitory activity"}, {"measurement": "inhibitory activity of TNF-α (levels of TNF-α)", "setting": "TNF-α", "value": "inhibitory activity"}]}
